For 13 compounds, EC50 results are on record in patent US20250263408A1 (Uniquest Pty Ltd, priority 2022, published 2025).

pEC50: −log10 of the molar value.

The subject of experiment [1] is Ba/F3-WT (wild type) cells. Put plainly: Ba/F3 Proliferation Assay, Ba/F3-WT (wild type) cells with mIL-3 (Resazurin). Type of experiment: cell-based. As to conditions: Mus musculus, BaF3, 48 h, Ba/F3-WT cells +mIL-3, 48-hour incubation. The method, then:
(§1) Ba/F3-Syk and Ba/F3-WT (wild type) cells were maintained at ≤1×10^6 cell/mL in RPMI (Life Technologies) with 10% FBS at 37° C. and 5% CO2 for a maximum of four weeks. Ba/F3-WT additionally contained 2 ng/mL mIL-3 (R&D Systems) to induce cellular growth. Cells were counted and dispensed at 5000 cells/well using a Multidrop Liquid Dispenser in a volume of 45 μL into black 384-well TC treated plates (Greiner) and incubated for four hours in complete media (+mIL-3 for Ba/F3-WT). Compounds were serially diluted in 100% DMSO, prior to an intermediate dilution in RPMI media. 5 μL of compound (0.4% final DMSO) was added to the cells, followed by a 48-hour incubation period. 5 μL of Resazurin (60 μM final) was then added and cells were incubated at 37° C. for three hours, before fluorescence (λex530/λem585) was measured using an Ensight Multimode Plate Reader (Perkin Elmer).
(In general: The colour change of resazurin is a common sign of viable cells or microbes.)

In another experiment the target is T1, Ba/F3-Syk cells (Homo sapiens, UniProt P43405).
T1 construct: fused on or other part: Possible but unprinted fusion partner: TEL (ETV6), the usual partner for Ba/F3 lines transformed by Syk; Nothing on a partner is printed
The experiment in a line: Ba/F3 Proliferation Assay, Ba/F3-Syk cells (Resazurin). The format is cell-based. The note with it: 48-hour incubation. As to the method: as §1

Broadly, the pEC50 is the EC50 on a negative log10 scale, so that one unit is a factor of ten. High values mean a low EC50, low ones a high EC50. On to `CC[C@H]1CNC[C@@H](COc2nc(-c3cnn(C(C)(C)C)c3)cc3ncccc23)O1` [Compound 2.92, 7-(1-tert-butyl-1H-pyrazol-4-yl)-5-{[(2S,6S)-6-ethylmorpholin-2-yl]methoxy}-1,6-naphthyridine], for which the negative-log EC50 (pEC50) in experiment [1] was 6.22; on Ba/F3-Syk cells, 7.54.
For `CC[C@@H]1CNC[C@@H](COc2nc(-c3cnn(C(C)(C)C)c3)cc3ncccc23)O1` [Compound 2.93, 7-(1-tert-butyl-1H-pyrazol-4-yl)-5-{[(2S,6R)-6-ethylmorpholin-2-yl]methoxy}-1,6-naphthyridine], the pEC50 in experiment [1] is 5.91; at Ba/F3-Syk cells, 7.56.
In the same order, the values of `CC(C)n1cc(-c2cc3ncccc3c(OC[C@H]3OCCN[C@H]3C)n2)cn1` [Compound 2.96, 5-{[(2S,3S)-3-methylmorpholin-2-yl]methoxy}-7-[1-(propan-2-yl)-1H-pyrazol-4-yl]-1,6-naphthyridine] are 6.14 and 7.70.
For the compound `O=C1CCn2cc(-c3cc(OC[C@@H]4CNCCO4)c4cccnc4c3)cc21` [Compound 3, 6-(5-{[(2S)-morpholin-2-yl]methoxy}quinolin-7-yl)-2,3-dihydro-1H-pyrrolizin-1-one], the pEC50 in experiment [1] is 5.71; on Ba/F3-Syk cells, 6.79.
For `c1cnc2cc(-c3cnn(C4CC4)c3)cc(OC[C@@H]3CNCCO3)c2c1` [Compound 3.3, 7-(1-cyclopropyl-1H-pyrazol-4-yl)-5-{[(2S)-morpholin-2-yl]methoxy} quinoline], the pEC50 in experiment [1] was 5.59; on Ba/F3-Syk cells it was 6.75.
For `c1cnc2cc(-c3cnn(C4CCC4)c3)cc(OC[C@@H]3CNCCO3)c2c1` [Compound 3.5, 7-(1-cyclobutyl-1H-pyrazol-4-yl)-5-{[(2S)-morpholin-2-yl]methoxy}quinoline], the pEC50 was 6.05 in experiment [1] and 7.21 at Ba/F3-Syk cells.
Turning to `Cc1cc(-c2cc(OC[C@@H]3CNCCO3)c3cccnc3c2)cs1` [Compound 3.7, 7-(5-methylthiophen-3-yl)-5-{[(2S)-morpholin-2-yl]methoxy}quinoline], the figures for the pEC50 (in experiment [1]; on Ba/F3-Syk cells) were 5.43 and 6.87, respectively.
Turning to `c1cnc2cc(-c3cc[nH]c3)cc(OC[C@@H]3CNCCO3)c2c1` [Compound 3.9, 5-{[(2S)-morpholin-2-yl]methoxy}-7-(1H-pyrrol-3-yl)quinoline], the pEC50 was less than 5.00 in experiment [1] and 6.78 at Ba/F3-Syk cells.
Take `CC1(C)CNC[C@@H](COc2cc(-c3cnn(C(F)F)c3)cc3ncccc23)O1` [Compound 3.11, 7-[1-(difluoromethyl)-1H-pyrazol-4-yl]-5-{[(2S)-6,6-dimethylmorpholin-2-yl]methoxy}quinoline]: the values for the pEC50 (in experiment [1]; on Ba/F3-Syk cells) were 5.67 and 6.79, respectively.
For the compound `CC1(C)CNC[C@@H](COc2cc(-c3cnn(CC(F)F)c3)cc3ncccc23)O1` [Compound 3.12, 7-[1-(2,2-difluoroethyl)-1H-pyrazol-4-yl]-5-{[(2S)-6,6-dimethylmorpholin-2-yl]methoxy}quinoline], the pEC50 is 5.77 in experiment [1] and 7.06 at Ba/F3-Syk cells.
Take `CC1(C)CNC[C@@H](COc2cc(-c3cnn(C4CCC4)c3)cc3ncccc23)O1` [Compound 3.13, 7-(1-cyclobutyl-1H-pyrazol-4-yl)-5-{[(2S)-6,6-dimethylmorpholin-2-yl]methoxy}quinoline]: the pEC50 in experiment [1] is 6.09; at Ba/F3-Syk cells it was 7.45.
For `CC1(C)CNC[C@@H](COc2cc(-c3ccn(C(C)(C)C)c3)cc3ncccc23)O1` [Compound 3.16, 7-(1-tert-butyl-1H-pyrrol-3-yl)-5-{[(28)-6,6-dimethylmorpholin-2-yl]methoxy}quinoline], the pEC50 in experiment [1] was 5.21; on Ba/F3-Syk cells, 7.92.
On to `CC(C)(C)n1ccc(-c2cc(OC[C@@H]3CNCC4(CC4)O3)c3cccnc3c2)c1` [Compound 3.18, 7-(1-tert-butyl-1H-pyrrol-3-yl)-5-{[(5S)-4-oxa-7-azaspiro[2.5]octan-5-yl]methoxy}quinoline], for which the pEC50 in experiment [1] is 5.27; on Ba/F3-Syk cells, 7.64.
